Key:
human JAK2 = human JAK2 (Homo sapiens (Human), UniProt O60674); details: read-out: JAK2 IC50
human FAK = human FAK (Homo sapiens (Human), UniProt Q05397); details: read-out: FAK IC50
Chain of human FAK (Q05397 whole entry): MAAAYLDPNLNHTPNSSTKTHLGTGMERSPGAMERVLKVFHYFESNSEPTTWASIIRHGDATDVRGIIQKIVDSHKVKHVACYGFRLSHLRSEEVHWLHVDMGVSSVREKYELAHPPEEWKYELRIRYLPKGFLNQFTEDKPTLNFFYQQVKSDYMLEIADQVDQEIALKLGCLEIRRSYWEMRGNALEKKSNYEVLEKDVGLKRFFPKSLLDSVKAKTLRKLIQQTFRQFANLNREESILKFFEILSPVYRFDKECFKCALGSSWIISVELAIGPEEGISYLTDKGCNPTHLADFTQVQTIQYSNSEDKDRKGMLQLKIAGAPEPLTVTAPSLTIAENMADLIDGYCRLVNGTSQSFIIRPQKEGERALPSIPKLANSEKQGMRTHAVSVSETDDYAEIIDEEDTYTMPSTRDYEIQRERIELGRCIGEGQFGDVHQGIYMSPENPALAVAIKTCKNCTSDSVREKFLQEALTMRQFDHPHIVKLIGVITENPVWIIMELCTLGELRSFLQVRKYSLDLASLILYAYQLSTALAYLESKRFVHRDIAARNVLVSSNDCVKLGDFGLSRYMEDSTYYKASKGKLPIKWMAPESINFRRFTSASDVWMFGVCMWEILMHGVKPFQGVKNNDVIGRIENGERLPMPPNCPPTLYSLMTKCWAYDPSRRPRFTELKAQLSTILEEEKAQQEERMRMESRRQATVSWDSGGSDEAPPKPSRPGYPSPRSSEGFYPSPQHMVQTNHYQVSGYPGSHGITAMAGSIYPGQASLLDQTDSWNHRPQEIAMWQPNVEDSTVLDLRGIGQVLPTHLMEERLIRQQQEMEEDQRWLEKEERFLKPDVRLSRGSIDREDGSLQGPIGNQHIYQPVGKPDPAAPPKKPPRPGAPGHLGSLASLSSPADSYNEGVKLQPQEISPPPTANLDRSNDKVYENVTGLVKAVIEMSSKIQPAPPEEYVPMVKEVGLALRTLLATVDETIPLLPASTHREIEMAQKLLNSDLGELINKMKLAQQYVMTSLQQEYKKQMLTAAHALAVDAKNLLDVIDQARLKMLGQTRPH

Chain of human JAK2 (O60674 815-1132): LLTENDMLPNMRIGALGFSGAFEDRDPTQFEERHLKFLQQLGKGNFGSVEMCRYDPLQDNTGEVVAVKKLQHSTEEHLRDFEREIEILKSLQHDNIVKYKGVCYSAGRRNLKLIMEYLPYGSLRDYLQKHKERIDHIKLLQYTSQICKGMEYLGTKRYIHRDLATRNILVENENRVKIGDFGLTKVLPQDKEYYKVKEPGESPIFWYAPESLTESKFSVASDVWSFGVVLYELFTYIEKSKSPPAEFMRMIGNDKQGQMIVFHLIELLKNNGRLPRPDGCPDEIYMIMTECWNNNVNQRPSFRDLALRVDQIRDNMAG

## CN1CCN(c2cccc(Nc3nc4c(Nc5cccc(S(C)(=O)=O)c5)cccn4n3)c2)CC1 [Example 110, N(8)-(3-Methanesulfonyl-phenyl)-N(2)-[3-(4-methyl-piperazin-1-yl)-phenyl]-[1,2,4]triazolo[1,5-a]pyridine-2,8-diamine]
Human JAK2
  IC50: 1310 nM
Human FAK
  IC50: 3000 nM

## COc1ccc(Nc2nc3c(-c4cnn(S(C)(=O)=O)c4)cccn3n2)cc1 [Example 42, [8-(1-Methanesulfonyl-1H-pyrazol-4-yl)-[1,2,4]triazolo[1,5-a]pyridin-2-yl]-(4-methoxy-phenyl)-amine]
Human JAK2
  IC50: 3 nM
Human FAK
  IC50: 507 nM

## CS(=O)(=O)c1ccc(-c2cccc3nc(Nc4cccc(CN5CCOCC5)c4)nn23)cc1 [Example 117, [5-(4-Methanesulfonyl-phenyl)-[1,2,4]triazolo[1,5-a]pyridin-2-yl]-(3-morpholin-4-ylmethyl-phenyl)-amine]
Human JAK2
  IC50: 0.95 nM
Human FAK
  IC50: 1470 nM

## Cn1ncc2c(-c3cccn4nc(Nc5ccc6c(c5)CCNCC6)nc34)cccc21 [Example 298, [8-(1-Methyl-1H-indazol-4-yl)-[1,2,4]triazolo[1,5a]pyridine-2-yl]-(2,3,4,5-tetrahydro-benzo[d]azepin-7-yl)-amine]
Human JAK2
  IC50: 16.5 nM
Human FAK
  IC50: 1030 nM

## CN1CCN(c2ccc(NC(=O)Nc3nc4cccc(-c5cccc(S(C)(=O)=O)c5)n4n3)cc2)CC1 [Example 89, 1-[5-(3-Methanesulfonyl-phenyl)-[1,2,4]triazolo[1,5-a]pyridin-2-yl]-3-[4-(4-methyl-piperazin-1-yl)-phenyl]-urea]
Human JAK2
  IC50: 230 nM
Human FAK
  IC50: 8830 nM

## CN1CCN(Cc2ccc(Nc3nc4cccc(-c5cccc(S(C)(=O)=O)c5)n4n3)cc2)CC1 [Example 88, [5-(3-Methanesulfonyl-phenyl)-[1,2,4]triazolo[1,5-a]pyridin-2-yl]-[4-(4-methyl-piperazin-1-ylmethyl)-phenyl]-amine]
Human JAK2
  IC50: 11.7 nM
Human FAK
  IC50: 1030 nM

## CN1CCN(c2cccc(Nc3nc4c(C#Cc5ccccc5N(C)S(C)(=O)=O)cccn4n3)c2)CC1 [Example 192, N-Methyl-N-(2-{2-[3-(4-methyl-piperazin-1-yl)-phenylamino]-[1,2,4]triazolo[1,5-a]pyridin-8-ylethynyl}-phenyl)-methanesulfonamide]
Human JAK2
  IC50: 23.9 nM
Human FAK
  IC50: 2420 nM

## CS(=O)(=O)c1ccc(-c2cccn3nc(Nc4cnn(C5CCNCC5)c4)nc23)cc1 [Example 213, [8-(4-Methanesulfonyl-phenyl)-[1,2,4]triazolo[1,5-a]pyridin-2-yl]-(1-piperidin-4-yl-1H-pyrazol-4-yl)-amine]
Human JAK2
  IC50: 0.71 nM
Human FAK
  IC50: 3000 nM

## CN(C)C(=O)CN1CCc2ccc(Nc3nc4c(-c5cccc6c5OC(F)(F)O6)cccn4n3)cc2CC1 [Example 248, 2-(7-[8-(2,2-difluoro-1,3-benzodioxol-4-yl)-[1,2,4]triazolo[1,5-a]pyridin-2-yl-amino]-1,2,4,5-tetrahydro-3-benzazepin-3-yl)-N—N-dimethyl-acetamide]
Human JAK2
  IC50: 30.4 nM
Human FAK
  IC50: 1700 nM

## CN1CCC(c2ccc(Nc3nc4c(Nc5ccccc5CS(C)(=O)=O)cccn4n3)cc2)CC1 [Example 165, N(8)-(2-Methanesulfonylmethyl-phenyl)-N(2)-[4-(1-methyl-piperidin-4-yl)-phenyl]-[1,2,4]triazolo[1,5-a]pyridine-2,8-diamine]
Human JAK2
  IC50: 39.9 nM
Human FAK
  IC50: 2000 nM

## CN1CCC(c2ccc(Nc3nc4c(NCc5ccccc5N(C)S(C)(=O)=O)cccn4n3)cc2)CC1 [Example 149, N-Methyl-N-[2-({2-[4-(1-methyl-piperidin-4-yl)-phenylamino]-[1,2,4]triazolo[1,5-a]pyridin-8-ylamino}-methyl)-phenyl]-methanesulfonamide]
Human JAK2
  IC50: 38.5 nM
Human FAK
  IC50: 13.6 nM

## CN1CCN(c2ccc(Nc3nc4c(OCc5ccccc5C#N)cccn4n3)cc2)CC1 [Example 262, 2-{2-[4-(4-Methyl-piperazin-1-yl)-phenylamino]-[1,2,4]triazolo[1,5-a]pyridin-8-yloxymethyl}-benzonitrile]
Human JAK2
  IC50: 15.1 nM
Human FAK
  IC50: 2560 nM

## CCCOc1ccc(Cl)cc1-c1cccn2nc(Nc3ccc4c(c3)CCN(CC(=O)N(C)C)CC4)nc12 [Example 308, 2-{7-[8-(5-Chloro-2-propoxy-phenyl]-[1,2,4]triazolo[1,5a]pyridine-2-ylamino]1,2,4,5-tetrahydro-benzo[d]azepin-3-yl)-N,N-dimethyl-acetamide]
Human JAK2
  IC50: 365 nM
Human FAK
  IC50: 946 nM

## c1cncc(CNc2cccn3nc(Nc4ccc(OCCN5CCCC5)cc4)nc23)c1 [Example 154, N(8)-Pyridin-3-ylmethyl-N(2)-[4-(2-pyrrolidin-1-yl-ethoxy)-phenyl]-[1,2,4]triazolo[1,5-a]pyridine-2,8-diamine]
Human JAK2
  IC50: 571 nM
Human FAK
  IC50: 10000 nM

## CS(=O)(=O)c1ccc(-c2cccn3nc(Nc4cccc(S(C)(=O)=O)c4)nc23)cc1 [Example 113, (3-Methanesulfonyl-phenyl)-[8-(4-methanesulfonyl-phenyl)-[1,2,4]triazolo[1,5-a]pyridin-2-yl]-amine]
Human JAK2
  IC50: 5.57 nM
Human FAK
  IC50: 693 nM

## CP(C)(=O)c1ccc(-c2cccn3nc(Nc4cccc(C5CCN(CCS(C)(=O)=O)CC5)c4)nc23)cc1 [Example 203, {8-[4-(Dimethyl-phosphinoyl)-phenyl]-[1,2,4]triazolo[1,5-a]pyridin-2-yl}-{3-[1-(2-methanesulfonyl-ethyl)-piperidin-4-yl]-phenyl}-amine]
Human JAK2
  IC50: 166 nM
Human FAK
  IC50: 10000 nM

## CS(=O)(=O)c1ccc(-c2cccn3nc(Nc4ccc5c(c4)CCNCC5)nc23)c(OCC(F)F)c1 [Example 370, {8-[2-(2,2-Difluoro-ethoxy)-4-methanesulfonyl-phenyl]-[1,2,4]triazolo[1,5-a]pyridin-2-yl}-(2,3,4,5-tetrahydro-1H-3-benzazepin-7-yl)-amine]
Human JAK2
  IC50: 61.9 nM
Human FAK
  IC50: 999 nM

## COc1ccccc1-c1cccn2nc(Nc3ccc(N4CCN(C)CC4)cc3)nc12 [Example 55, [8-(2-Methoxy-phenyl)-[1,2,4]triazolo[1,5-a]pyridin-2-yl]-[4-(4-methyl-piperazin-1-yl)-phenyl]-amine]
Human JAK2
  IC50: 38.4 nM
Human FAK
  IC50: 3000 nM

## CN1Cc2ccc(Nc3nc4c(C#Cc5ccccc5N(C)S(C)(=O)=O)cccn4n3)cc2C1 [Example 193, N-Methyl-N-{2-[2-(2-methyl-2,3-dihydro-1H-isoindol-5-ylamino)-[1,2,4]triazolo[1,5-a]pyridin-8-ylethynyl]-phenyl}-methanesulfonamide]
Human JAK2
  IC50: 11.5 nM
Human FAK
  IC50: 3000 nM

## CN(C)C(=O)CN1CCc2ccc(Nc3nc4c(-c5cc(F)ccc5OCC(F)F)cccn4n3)cc2CC1 [Example 378, 2-(7-{8-[2-(2,2-Difluoro-ethoxy)-5-fluoro-phenyl]-[1,2,4]triazolo[1,5-a]pyridin-2-ylamino}-1,2,4,5-tetrahydro-3-benzazepin-3-yl)-N,N-dimethyl-acetamide]
Human JAK2
  IC50: 520 nM
Human FAK
  IC50: 1250 nM

## FC(F)(F)c1ccc(-c2cccn3nc(Nc4cnn(CCN5CCCC5)c4)nc23)cc1 [Example 216, [1-(2-Pyrrolidin-1-yl-ethyl)-1H-pyrazol-4-yl]-[8-(4-trifluoromethyl-phenyl)-[1,2,4]triazolo[1,5-a]pyridin-2-yl]-amine]
Human JAK2
  IC50: 9.1 nM
Human FAK
  IC50: 10000 nM

## CN(c1ncccc1CNc1cccn2nc(Nc3ccc(S(C)(=O)=O)cc3)nc12)S(C)(=O)=O [Example 134, N-(3-{[2-(4-Methanesulfonyl-phenylamino)-[1,2,4]triazolo[1,5-a]pyridin-8-ylamino]-methyl}-pyridin-2-yl)-N-methyl-methanesulfonamide]
Human JAK2
  IC50: 17.3 nM
Human FAK
  IC50: 752 nM

## COc1ccc(C(F)(F)F)cc1-c1cccn2nc(Nc3ccc(OCCN4CCOCC4)cc3)nc12 [Example 258, [8-(2-Methoxy-5-trifluoromethyl-phenyl)-[1,2,4]triazolo[1,5-a]pyridin-2-yl]-[4-(2-morpholin-4-yl-ethoxy)-phenyl]-amine]
Human JAK2
  IC50: 84.5 nM
Human FAK
  IC50: 6500 nM

## CN1CCN(c2cccc(Nc3nc4c(-c5ccc(F)cc5)cccn4n3)c2)CC1 [Example 365, [8-(4-Fluoro-phenyl)-[1,2,4]-triazolo[1,5-a]pyridin-2-yl]-[3-(4-methyl-piperazin-1-yl)-phenyl]-amine]
Human JAK2
  IC50: 29.1 nM
Human FAK
  IC50: 999 nM

## CN1CCN(c2cccc(Nc3nc4c(NCc5cccnc5)cccn4n3)c2)CC1 [Example 153, N(2)-[3-(4-Methyl-piperazin-1-yl)-phenyl]-N(8)-pyridin-3-ylmethyl-[1,2,4]triazolo[1,5-a]pyridine-2,8-diamine]
Human JAK2
  IC50: 647 nM
Human FAK
  IC50: 6500 nM

## CS(=O)(=O)c1ccc(-c2cccc3nc(Nc4cccc(CN5CCS(=O)(=O)CC5)c4)nn23)cc1 [Example 121, N-{3-[(1,1-dioxidothiomorpholin-4-yl)methyl]phenyl}-5-[4-(methylsulfonyl)phenyl][1,2,4]triazolo[1,5-a]pyridin-2-amine]
Human JAK2
  IC50: 0.55 nM
Human FAK
  IC50: 999 nM

## COc1ccc(C(F)(F)F)cc1-c1cccn2nc(Nc3ccc4c(c3)CCN(CC(=O)N(C)C)C4)nc12 [Example 338, 2-{6-[8-(2-Methoxy-5-trifluoromethyl-phenyl)-[1,2,4]-triazolo[1,5-a]pyridin-2-ylamino]-3,4-dihydro-1H-isoquinolin-2-yl}-N,N-dimethyl-acetamide]
Human JAK2
  IC50: 41.4 nM
Human FAK
  IC50: 1370 nM

## COc1ccccc1-c1cccn2nc(Nc3cccc(N4CCN(C)CC4)c3)nc12 [Example 56, [8-(2-Methoxy-phenyl)-[1,2,4]triazolo[1,5-a]pyridin-2-yl]-[3-(4-methyl-piperazin-1-yl)-phenyl]-amine]
Human JAK2
  IC50: 26.8 nM
Human FAK
  IC50: 3000 nM

## COc1ccccc1CNc1cccn2nc(Nc3cccc(N4CCN(C)CC4)c3)nc12 [Example 388, N(8)-(2-Methoxy-benzyl)-N(2)-[3-(4-methyl-piperazin-1-yl)-phenyl]-[1,2,4]triazolo[1,5-a]pyridine-2,8-diamine]
Human JAK2
  IC50: 46 nM
Human FAK
  IC50: 951 nM

## COc1cccc(CNc2cccn3nc(Nc4ccc(C)nc4)nc23)c1 [Example 405, N(8)-(3-Methoxy-benzyl)-N(2)-(6-methyl-pyridin-3-yl)-[1,2,4]triazolo[1,5-a]pyridine-2,8-diamine]
Human JAK2
  IC50: 1020 nM
Human FAK
  IC50: 10000 nM

Reference: patent US8501936B2 (priority 2009, dated 2013)
